# In patent US20220273689A1, “POTENTIATION OF ANTIVIRAL NUCLEOBASES AS RNA VIRUS THERAPY” (REGENTS OF THE UNIVERSITY OF MINNESOTA, priority 2019, published 2022):
# “Also recorded” adds a separate entry of the source. Where two headings read alike, the source gives them in different places.
# What was measured:
# DENV-2 viral replicon [1] = assay: microbe, parasite or virus in culture; conditions: Dengue virus, DENV2, BHK, 72 h
# [2] = test system: DENV replicon cells (BHK); assay: Cell viability assay (MTS) in DENV replicon cells; conditions: for CC50: DENV replicon BHK cells, MTS, 72 h
# DENV-2 viral replicon [3] = conditions: for TTI, tissue culture therapeutic index (CC50/EC50): DENV replicon BHK cells
# DENV replicon = format: cell-based, Dengue virus (DENV); conditions: for antiviral activity of nucleobase alone: 0.6 μM nucleobase, without 6-MMPR; for antiviral (anti-replicon) activity when supplemented with 6-MMPR: nucleobase supplemented with 0.01 μM 6-MMPR
# ZIKV = assay: Potentiation in replication-competent ZIKV titer reduction assay using Huh-7 cells; conditions: 0.1 μM 6-MMPR, infectious virus titer
# Procedure: DENV and ZIKV. Huh7 cells were plated in each well of a 24 well plate (1×10^5/well). Twenty-four hours later, cells were inoculated with DENV 2 or ZIKV at a multiplicity of infection (MOI) of 0.05. Two hours post-inoculation, inoculum was retired and fresh medium containing treatment was added. Columns 1 to 6 were treated with increasing concentrations of 6-MMPR (0, 0.025, 0.05, 0.1, 0.2 and 0.4 μM). Rows A to D were treated with 0, 25, 50 and 100 μM of T-1105. Supernatants were collected after 72 hours post-infection and infectious virions were analyzed by plaque assay as extent of infectious virus production.
# DENV 2 = assay: Potentiation in replication-competent DENV assay using Huh-7 cells (plaque assay, MacSynergy II); conditions: for synergy/potentiation with 6-MMPR for reduction in DENV replication: Huh7 cells, 0.1 μM 6-MMPR, infectious virus titer (FIG. 9); for potentiation/synergy with 6-MMPR of anti-DENV activity: Huh-7 cells, matrix of 6-MMPR and T-1105, infectious virus titer (FIG. 6)
# Procedure: Huh7 cells were plated in each well of a 24 well plate (1×10^5/well). Twenty-four hours later, cells were inoculated with DENV 2 or ZIKV at a multiplicity of infection (MOI) of 0.05. Two hours post-inoculation, inoculum was retired and fresh medium containing treatment was added. Columns 1 to 6 were treated with increasing concentrations of 6-MMPR (0, 0.025, 0.05, 0.1, 0.2 and 0.4 μM). Rows A to D were treated with 0, 25, 50 and 100 μM of T-1105. Supernatants were collected after 72 hours post-infection and infectious virions were analyzed by plaque assay as extent of infectious virus production. For FIG. 5, Huh7 cells were inoculated with DENV or ZIKV and treated with different concentrations of T-1105 (0, 3, 9, 27, 51 or 243 μM), T-1106 (0, 6.7, 20, 60, 180 or 540 μM) and T-705 (same concentrations as T-1106) in combination with 0.1 μM AM28 or DMSO. After 72 hours post infection supernatants were collected and analyzed for viral yield by plaque assay.
# DENV = DENV titer reduction assay in Huh-7 cells, dose-response; format: cell-based; conditions: Dengue virus
# [4] = Cell viability assay (MTS) in DENV replicon cells; conditions: hamster
# IAV = assay: Protection of Huh7 cells from IAV-induced cytopathic effects (MTS); format: cell-based, influenza A virus
# HCoV-OC43 = assay: Potentiation against HCoV-OC43 in Huh7 cells; format: cell-based, human betacoronavirus OC43; conditions: HCoV-OC43, combination with 6-MMPR, MacSynergy; listed as favipiravir
# Procedure: HCoV-OC43. Huh7 cells were 12,500 Huh7 cells were seeded in a 96 well plate. Next day, the cells were inoculated with OC43 virus at a MOI (multiplicity of infection) of 0.5 for two hours. Next, the inoculum was removed and cells were treated with different combinations of 6MMPr and T-705 or remdesivir 1 μM (RDV) as positive control. Three wells per treatment were used. Cells were incubated for 5 days. Infected and treated cells were analyzed for cell viability by MTS and absorbance was measured at 490 nm.
# [5] = Safety of the combination in DENV mouse model; format: in vivo; conditions: health of the mice / body weight
# Procedure: The mice were treated with Vehicle, the combination T-1105 (3a)+6-MMPR, 1105 only, and PBS. Viral genomes were detected and quantitated by RT-qPCR at 2 or 4 days post infection. […] These studies help predict a safe dose and timing of administration of the combination of favipiravir (T705) and 6-MMPR to treat RNA virus infections, such as SARS-CoV-2.
# [6] = combination with 6-MMPR (AM28), MacSynergy II
compound,measurement,setting,value
"NC(=O)c1nc[nH]c1O [Compound 2a, 5-hydroxy-1H-imidazole-4-carboxamide]",EC50,DENV-2 viral replicon [1],2.4 ± 0.1 µM
same,CC50,[2],23 ± 4.2 µM
same,"TTI, tissue culture therapeutic index (CC50/EC50)",DENV-2 viral replicon [3],9.6
same,antiviral activity of nucleobase alone,DENV replicon,no antiviral activity
same,antiviral (anti-replicon) activity when supplemented with 6-MMPR,DENV replicon,an increase in antiviral activity was observed
"COc1c(C)c2c(c(O)c1C/C=C(C)/C=C(\C)C(=O)O)C(=O)OC2 [Compound 6, (2E,4E)-6-(4-hydroxy-6-methoxy-7-methyl-3-oxo-1,3-dihydroisobenzofuran-5-yl)-2,4-dimethylhexa-2,4-dienoic acid, reference compound]",EC50,DENV-2 viral replicon [1],0.3 ± 0.03 µM
same,CC50,[2],1.4 ± 0.4 µM
same,"TTI, tissue culture therapeutic index (CC50/EC50)",DENV-2 viral replicon [3],4.7
"CSc1ncnc2c1ncn2[C@@H]1O[C@H](CO)[C@@H](O)[C@H]1O [Compound 6-MMPR, (2R,3S,4R,5R)-2-(hydroxymethyl)-5-(6-(methylthio)-9H-purin-9-yl)tetrahydrofuran-3,4-diol]",antiviral activity of 6-MMPR alone,"DENV replicon; 0.01 μM, alone",lack of antiviral activity
same,potentiation of nucleobase anti-replicon activity,DENV replicon; 6-MMPR 0.0025 and 0.005 μM,did not potentiate nucleobase anti-replicon activity
same,anti-replicon activity of their own,"DENV replicon; 6-MMPR 0.0025 and 0.005 μM, alone",nor did they have anti-replicon activity of their own
"NC(=O)c1ncn([C@@H]2O[C@H](CO)[C@@H](O)[C@H]2O)c1O [Compound 2b, 1-((2R,3R,4S,5R)-3,4-dihydroxy-5-(hydroxymethyl)tetrahydrofuran-2-yl)-5-hydroxy-1H-imidazole-4-carboxamide, reference compound]",EC50,DENV-2 viral replicon [1],15 ± 7.8 µM
same,CC50,[2],33 ± 12 µM
same,"TTI, tissue culture therapeutic index (CC50/EC50)",DENV-2 viral replicon [3],2.2
"NC(=O)c1nccn([C@@H]2O[C@H](CO)[C@@H](O)[C@H]2O)c1=O [Compound 3b, 4-((2R,3R,4S,5R)-3,4-dihydroxy-5-(hydroxymethyl)tetrahydrofurran-2-yl)-3-oxo-3,4-dihydropyrazine-2-carboxamide]",EC50,DENV-2 viral replicon [1],113 ± 11 µM
same,CC50,[2],> 1000 µM
same,synergy/potentiation with 6-MMPR for reduction in ZIKV replication,ZIKV,did not potentiate
same,synergy/potentiation with 6-MMPR for reduction in ZIKV replication,ZIKV; listed as T-1106,does not produce a synergistic effect
same,"TTI, tissue culture therapeutic index (CC50/EC50)",DENV-2 viral replicon [3],8.8
same,synergy with 6-MMPR for reduction in DENV replicon replication,DENV replicon; [6],did not result in significant synergy
same,synergy with 6-MMPR for reduction in DENV replicon replication,"DENV replicon; combination with 6-MMPR (AM28), MacSynergy II, listed as T-1106",synergistic effect
same,synergy/potentiation with 6-MMPR for reduction in DENV replication,DENV 2,almost entirely an additive result
same,synergy/potentiation with 6-MMPR for reduction in DENV replication,DENV 2; listed as T-1106,does not produce a synergistic effect
same,EC50,DENV,60 ± 22 µM
"NC(=O)c1nccnc1O [Compound 3a, 3-hydroxypyrazine-2-carboxamide]",cellular toxicity,Huh-7 cells,absence of cellular toxicity
same,EC50,DENV-2 viral replicon [1],21 ± 0.7 µM
same,CC50,[2],> 665 µM
same,CC50 at 72 h,[4],> 665 µM
same,synergy/potentiation with 6-MMPR for reduction in ZIKV replication,ZIKV,showed synergy
same,synergy/potentiation with 6-MMPR for reduction in ZIKV replication,ZIKV; listed as T-1105,synergistic effect
same,times more active than nucleobase 5a (favipiravir),DENV-2 viral replicon [3]; DENV replicon,5
same,"TTI, tissue culture therapeutic index (CC50/EC50)",DENV-2 viral replicon [3],32
same,synergy with 6-MMPR for reduction in DENV replicon replication,DENV replicon; [6],Stronger synergy
same,synergy with 6-MMPR for reduction in DENV replicon replication,"DENV replicon; combination with 6-MMPR (AM28), MacSynergy II, listed as T-1105",synergistic effect
same,synergy/potentiation with 6-MMPR for reduction in DENV replication,DENV 2,synergistic effect
same,potentiation/synergy with 6-MMPR of anti-DENV activity,DENV 2,strongly potentiates
same,potentiation/synergy with 6-MMPR of anti-DENV activity,DENV 2; listed as T-1105,synergistic effect
same,EC50,DENV,20 ± 11 µM
"NC(=O)c1ncn([C@@H]2O[C@H](CO)[C@@H](O)[C@H]2O)n1 [Compound 1b, 1-((2R,3R,4S,5R)-3,4-dihydroxy-5-(hydroxymethyl)tetrahydrofuran-2-yl)-1H-1,2,4-triazole-3-carboxamide, reference compound]",EC50,DENV-2 viral replicon [1],1.3 ± 0.1 µM
"NC(=O)c1nc[nH]n1 [Compound 1a, 1H-1,2,4-triazole-3-carboxamide]",EC50,DENV-2 viral replicon [1],4.9 ± 1.6 µM
same,CC50,[2],> 1000 µM
same,cytotoxicity,[2]; at 1000 μM,did not show cytotoxicity
same,CC50 at 72 h,[4],> 665 µM
same,"TTI, tissue culture therapeutic index (CC50/EC50)",DENV-2 viral replicon [3],204
same,antiviral activity of nucleobase alone,DENV replicon,no antiviral activity
same,antiviral (anti-replicon) activity when supplemented with 6-MMPR,DENV replicon,an increase in antiviral activity was observed
"Nc1nc(N)c2[nH]cnc2n1 [Compound 4a, 9H-purine-2,6-diamine]",CC50,[2],13 ± 2.1 µM
"NC(=O)c1nc(F)cnc1O [Compound 5a, 6-fluoro-3-hydroxypyrazine-2-carboxamide, reference compound]",EC50,DENV-2 viral replicon [1],110 ± 30 µM
same,synergy with 6-MMPR against IAV,IAV,synergistic antiviral effect; also recorded: clear synergy peak
same,protection of cells from IAV-induced cytopathic effects (CPE),"IAV; Huh7 cells, in combination with 6MMPR, listed as favipiravir",can protect cells; also recorded: protection of human cells from IAV-induced cell death
same,CC50,[2],> 1000 µM
same,CC50 at 72 h,[4],> 665 µM
same,synergy/potentiation with 6-MMPR for reduction in ZIKV replication,ZIKV,showed synergy
same,synergy/potentiation with 6-MMPR for reduction in ZIKV replication,ZIKV; listed as T-705,synergistic effect
same,synergy/potentiation with 6-MMPR for reduction in ZIKV replication,ZIKV; listed as favipiravir,synergistic antiviral effect
same,synergy with 6-MMPR for reduction in DENV replicon replication,DENV replicon,synergistic effect
same,synergy/potentiation with 6-MMPR for reduction in DENV replication,DENV 2; listed as T-705,synergistic effect
same,synergy/potentiation with 6-MMPR for reduction in DENV replication,DENV 2; listed as favipiravir,synergistic antiviral effect
same,synergy with 6-MMPR in inhibiting production of infectious coronavirus particles,HCoV-OC43,synergistic antiviral effect; also recorded: synergistically increases; also recorded: clear synergistic effect
same,safety of the combination with 6-MMPR,[5],safe
